Data on 14 compounds can be found in ChEMBL document CHEMBL3044675, “Synthesis and Antifungal Activities of Some Novel Pyrimidine Derivatives” (2011).

Holding throughout (format): functional
One experiment has as its system Thanatephorus cucumeris. The experiment in a line: Antifungal activity against Thanatephorus cucumeris at 50 ug/ml by poisoned food technique.
For the next experiment, the system named is Sclerotinia sclerotiorum. The experiment in a line: Antifungal activity against Sclerotinia sclerotiorum at 50 ug/ml by poisoned food technique.
In another experiment the test system is Ceratobasidium cereale. The experiment in a line: Antifungal activity against Ceratobasidium cereale at 50 ug/ml by poisoned food technique.
Another experiment deals with Rhizoctonia solani. The experiment in a line: Antifungal activity against Rhizoctonia solani at 50 ug/ml by poisoned food technique.
A further experiment concerns Macrophoma. The experiment in a line: Antifungal activity against Macrophoma kuwatsukai at 50 ug/ml by poisoned food technique.
The next experiment deals with Fusarium fujikuroi. The experiment in a line: Antifungal activity against Fusarium fujikuroi at 50 ug/ml by poisoned food technique.
The next experiment has as its system Mycosphaerella arachidis. The experiment in a line: Antifungal activity against Mycosphaerella arachidis at 50 ug/ml by poisoned food technique.
Another experiment has as its system Bipolaris maydis. The experiment in a line: Antifungal activity against Cochliobolus heterostrophus at 50 ug/ml by poisoned food technique.
A further experiment deals with Botrytis cinerea. The experiment in a line: Antifungal activity against Botryotinia fuckeliana at 50 ug/ml by poisoned food technique.
Another experiment relates to Alternaria solani. The experiment in a line: Antifungal activity against Alternaria solani at 50 ug/ml by poisoned food technique.
Another experiment concerns Alternaria mali. The experiment in a line: Antifungal activity against Alternaria mali at 50 ug/ml by poisoned food technique.
In another experiment the test system is Alternaria kikuchiana. The experiment in a line: Antifungal activity against Alternaria kikuchiana at 50 ug/ml by poisoned food technique.
For the next experiment, the system named is Phytophthora infestans. The experiment in a line: Antifungal activity against Phytophthora infestans at 50 ug/ml by poisoned food technique.
In the next experiment the test system is Fusarium graminearum. The experiment in a line: Antifungal activity against Fusarium graminearum at 50 ug/ml by poisoned food technique.

With `COc1cc(C(=O)Oc2cc(C)nc(C(C)C)n2)cc(OC)c1OC`, the Activity in the experiment with Thanatephorus cucumeris turned out to be 9.8%; in the experiment with Sclerotinia sclerotiorum, 66.7%; in the experiment on Ceratobasidium cereale it was 15%; with Rhizoctonia solani it was 63.5%; with Macrophoma it was 40.6%; in the experiment on Fusarium fujikuroi, 20%. Moreover, the Activity with Mycosphaerella arachidis amounted to 6.7%; with Bipolaris maydis, 26.1%; in the experiment on Botrytis cinerea it was 14.8%; in the experiment on Alternaria solani, 0%; in the experiment on Alternaria mali it was 28.6%; with Alternaria kikuchiana, 31.8%.
Consider `Cc1cc(OCc2ccc(Cl)nc2)nc(C(C)C)n1`, for which the Activity is 80.4% with Thanatephorus cucumeris; 0% in the experiment with Sclerotinia sclerotiorum; 35% in the experiment with Ceratobasidium cereale; 63.5% in the experiment on Rhizoctonia solani; 22.7% with Phytophthora infestans; 31.3% with Macrophoma. Besides, the Activity turned out to be 20% with Fusarium fujikuroi; 25.9% in the experiment on Fusarium graminearum; 13.3% with Mycosphaerella arachidis; 34.8% in the experiment on Bipolaris maydis; 29.6% with Botrytis cinerea; 41.2% in the experiment with Alternaria solani. The Activity turned out to be 21.4% in the experiment with Alternaria mali and 45.5% in the experiment with Alternaria kikuchiana.
On to `Cc1cc(OCc2cnc(Cl)s2)nc(C(C)C)n1`, for which the Activity in the experiment with Thanatephorus cucumeris is 3.9%; in the experiment on Sclerotinia sclerotiorum, 0%; in the experiment on Ceratobasidium cereale, 30%; in the experiment with Rhizoctonia solani, 61.9%; with Phytophthora infestans, 0%; with Macrophoma it was 31.3%. Also, the Activity is 20% in the experiment on Fusarium fujikuroi; 14.8% in the experiment on Fusarium graminearum; 0% in the experiment on Mycosphaerella arachidis; 17.4% with Bipolaris maydis; 7.4% in the experiment on Botrytis cinerea; 0% with Alternaria solani. Moreover, the Activity is on record as 0% in the experiment with Alternaria mali and 18.2% in the experiment on Alternaria kikuchiana.
Regarding `COc1cc(OC)nc(NCc2ccc(Cl)nc2)n1`, the Activity in the experiment with Thanatephorus cucumeris turned out to be 2%; in the experiment on Sclerotinia sclerotiorum, 20%; with Ceratobasidium cereale, 5%; in the experiment on Rhizoctonia solani it was 54%; with Phytophthora infestans, 9.1%; in the experiment with Macrophoma, 46.9%. In addition, the Activity came out at 20% in the experiment with Fusarium fujikuroi; 0% in the experiment with Fusarium graminearum; 0% in the experiment with Mycosphaerella arachidis; 17.4% in the experiment with Bipolaris maydis; 40.7% in the experiment on Botrytis cinerea; 0% with Alternaria solani. Also, the Activity in the experiment with Alternaria mali is 0%; in the experiment with Alternaria kikuchiana, 18.2%.
Consider `COc1cc(OC)nc(NCc2cnc(Cl)s2)n1`, for which the Activity in the experiment on Thanatephorus cucumeris was determined as 2%; in the experiment on Sclerotinia sclerotiorum, 0%; with Ceratobasidium cereale, 5%; in the experiment with Rhizoctonia solani, 60.3%; in the experiment with Phytophthora infestans, 0%; with Macrophoma, 46.9%. Also, the Activity is given as 26.7% with Fusarium fujikuroi; 29.6% with Fusarium graminearum; 13.3% in the experiment on Mycosphaerella arachidis; 17.4% in the experiment on Bipolaris maydis; 37% in the experiment with Botrytis cinerea; 5.9% in the experiment on Alternaria solani. Besides, the Activity with Alternaria mali is recorded as 21.4%; with Alternaria kikuchiana, 31.8%.
Take `Cc1cc(Nc2ccccc2)nc(C(C)C)n1`: the Activity was found to be 39.2% in the experiment with Thanatephorus cucumeris; 0% in the experiment with Sclerotinia sclerotiorum; 5% in the experiment with Ceratobasidium cereale; 57.1% in the experiment with Rhizoctonia solani; 0% in the experiment with Phytophthora infestans; 21.9% in the experiment on Macrophoma. Besides, the Activity in the experiment with Fusarium fujikuroi is 0%; in the experiment with Fusarium graminearum, 7.4%; in the experiment on Mycosphaerella arachidis it was 33.3%; with Bipolaris maydis, 26.1%; in the experiment on Botrytis cinerea, 7.4%; with Alternaria solani, 11.8%. Moreover, the figures for the Activity with Alternaria mali and with Alternaria kikuchiana were 21.4% and 27.3%, respectively.
On to `Cc1cc(Nc2ccc(OC(F)(F)F)cc2)nc(C(C)C)n1`, for which the Activity is 76.5% in the experiment on Thanatephorus cucumeris; 0% in the experiment with Sclerotinia sclerotiorum; 25% in the experiment with Ceratobasidium cereale; 66.7% with Rhizoctonia solani; 36.4% with Phytophthora infestans; 25% in the experiment with Macrophoma. For the same compound, the Activity in the experiment on Fusarium fujikuroi was 40%; with Fusarium graminearum, 44.4%; in the experiment on Mycosphaerella arachidis it was 46.7%; in the experiment with Bipolaris maydis, 39.1%; with Botrytis cinerea, 25.9%; with Alternaria solani it was 35.3%. Moreover, the values for the Activity in the experiment with Alternaria mali and with Alternaria kikuchiana were 50% and 63.6%, respectively.
In the case of `Cc1cc(NC2CCCCC2)nc(C(C)C)n1`, the Activity turned out to be 52.9% in the experiment on Thanatephorus cucumeris; 33.3% with Sclerotinia sclerotiorum; 0% with Ceratobasidium cereale; 55.6% in the experiment with Rhizoctonia solani; 36.4% with Phytophthora infestans; 0% with Macrophoma. Further, the Activity stood at 13.3% with Fusarium fujikuroi; 22.2% in the experiment with Fusarium graminearum; 46.7% with Mycosphaerella arachidis; 13% in the experiment with Bipolaris maydis; 3.7% in the experiment with Botrytis cinerea; 0% with Alternaria solani. The Activity in the experiment with Alternaria mali was 21.4%; in the experiment on Alternaria kikuchiana, 27.3%.
Turning to `Cc1cc(OC(=O)N2CCOCC2)nc(C(C)C)n1`, the Activity with Thanatephorus cucumeris amounted to 19.6%; in the experiment on Sclerotinia sclerotiorum it was 0%; in the experiment on Ceratobasidium cereale, 20%; in the experiment with Rhizoctonia solani it was 61.9%; with Phytophthora infestans it was 0%; with Macrophoma, 31.3%. In addition, the Activity with Fusarium fujikuroi is 6.7%; in the experiment on Fusarium graminearum, 7.4%; in the experiment with Mycosphaerella arachidis, 6.7%; with Bipolaris maydis, 17.4%; in the experiment on Botrytis cinerea, 18.5%; with Alternaria solani it was 0%. The Activity was determined as 0% with Alternaria mali and 40.9% with Alternaria kikuchiana.
As for `Cc1cc(OC(=O)c2ccc(F)cc2)nc(C(C)C)n1`, the Activity is reported as 15.7% in the experiment with Thanatephorus cucumeris; 40% with Sclerotinia sclerotiorum; 0% in the experiment with Ceratobasidium cereale; 55.6% with Rhizoctonia solani; 18.2% in the experiment on Phytophthora infestans; 46.9% in the experiment with Macrophoma. Besides, the Activity in the experiment with Fusarium fujikuroi came to 46.7%; in the experiment with Mycosphaerella arachidis, 0%; with Bipolaris maydis, 13%; with Botrytis cinerea, 14.8%; with Alternaria solani, 0%; in the experiment with Alternaria mali it was 21.4%. This compound also registered an Activity in the experiment with Alternaria kikuchiana of 27.3%.
As for `Cc1cc(OC(=O)c2ccc(Cl)cc2)nc(C(C)C)n1`, the Activity turned out to be 0% with Thanatephorus cucumeris; 60% in the experiment on Sclerotinia sclerotiorum; 0% in the experiment with Ceratobasidium cereale; 61.9% with Rhizoctonia solani; 13.6% in the experiment with Phytophthora infestans; 37.5% in the experiment on Macrophoma. In addition, the Activity in the experiment with Fusarium fujikuroi was found to be 53.3%; with Fusarium graminearum, 40.7%; with Mycosphaerella arachidis, 6.7%; in the experiment on Bipolaris maydis, 26.1%; in the experiment on Botrytis cinerea, 33.3%; in the experiment on Alternaria solani, 0%. The values for the Activity with Alternaria mali and in the experiment with Alternaria kikuchiana were 21.4% and 22.7%, respectively.
Consider `COC(=O)Nc1nc2ccccc2[nH]1` [CARBENDAZIM], for which the Activity is 98% in the experiment on Thanatephorus cucumeris; 73.3% in the experiment on Sclerotinia sclerotiorum; 100% in the experiment with Ceratobasidium cereale; 100% with Rhizoctonia solani; 27.3% in the experiment on Phytophthora infestans; 43.8% in the experiment with Macrophoma. Also, the Activity with Fusarium fujikuroi stood at 60%; with Fusarium graminearum, 59.3%; with Mycosphaerella arachidis, 53.3%; with Bipolaris maydis, 69.6%; with Botrytis cinerea it was 63%; in the experiment with Alternaria solani it was 76.5%. Further, the Activity in the experiment on Alternaria mali was 78.6%; with Alternaria kikuchiana it was 81.8%.
Consider `COc1ccc(C(=CC(=O)N2CCOCC2)c2ccc(Cl)cc2)cc1OC` [DIMETHOMORPH], for which the Activity stood at 23.5% with Thanatephorus cucumeris; 20% in the experiment with Sclerotinia sclerotiorum; 40% in the experiment on Ceratobasidium cereale; 68.3% with Rhizoctonia solani; 9.1% in the experiment with Phytophthora infestans; 6.3% in the experiment on Macrophoma. The Activity with Fusarium fujikuroi was determined as 20%; in the experiment with Fusarium graminearum, 0%; with Mycosphaerella arachidis, 0%; in the experiment with Bipolaris maydis, 17.4%; with Botrytis cinerea, 18.5%; in the experiment with Alternaria solani, 5.9%. Also, the Activity was 7.1% in the experiment on Alternaria mali and 22.7% in the experiment with Alternaria kikuchiana.
Turning to `COc1ccc(/C(=C\C(=O)N2CCOCC2)c2ccc(F)cc2)cc1OC` [FLUMORPH], the Activity came to 9.8% in the experiment on Thanatephorus cucumeris; 0% in the experiment on Sclerotinia sclerotiorum; 20% with Ceratobasidium cereale; 61.9% with Rhizoctonia solani; 4.5% in the experiment with Phytophthora infestans; 21.9% with Macrophoma. Besides, the Activity in the experiment on Fusarium fujikuroi is given as 13.3%; with Fusarium graminearum, 7.4%; with Mycosphaerella arachidis, 0%; in the experiment on Bipolaris maydis it was 17.4%; in the experiment on Botrytis cinerea, 7.4%; with Alternaria solani, 0%. The results for the Activity with Alternaria mali and in the experiment with Alternaria kikuchiana were 21.4% and 18.2%, respectively.
